Laboratory results from US8642788B2, “Activators of executioner procaspases 3, 6 and 7” (The Regents of the University of California, priority 2008, dated 2014).

Key:
Type in all cases: biochemical
procaspase-3 = target: T1, procaspase-3 (Homo sapiens, UniProt P42574); assay: Executioner procaspase-3 activation assay (Ac-DEVD-AFC fluorogenic substrate); conditions: incubation with compound for 5 h at 37° C.; 100 nM procaspase; read-out: Procaspase Activation 3
T1 construct: His6 (C); made in house; host or cells: E. coli BL21(DE3)RP, pET-23b
T1 sequence (P42574 1-277): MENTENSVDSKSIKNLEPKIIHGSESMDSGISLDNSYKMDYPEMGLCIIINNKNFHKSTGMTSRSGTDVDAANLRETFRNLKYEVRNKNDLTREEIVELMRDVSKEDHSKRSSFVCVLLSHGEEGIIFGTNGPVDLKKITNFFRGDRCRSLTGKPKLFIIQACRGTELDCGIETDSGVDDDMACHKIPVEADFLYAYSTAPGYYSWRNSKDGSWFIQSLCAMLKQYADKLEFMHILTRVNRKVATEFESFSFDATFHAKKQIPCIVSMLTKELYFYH
Procedure, shortened: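 Procaspase-3 at 100 nM was incubated with activating compounds (100 nM to 100 uM) in 50 mM HEPES pH 7.4, 50 mM KCl, 1 mM DTT and 0.01% Triton-X100, the detergent limiting aggregation artefacts. Protein, substrate and inhibitor were kept as frozen aliquots and thawed just before use.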

procaspase-7 = target: T2, procaspase-7 (Homo sapiens, UniProt P55210); assay: Executioner procaspase-7 activation assay (Ac-DEVD-AFC fluorogenic substrate); conditions: incubation with compound for 5 h at 37° C.; 100 nM procaspase
T2 construct: His6 (C); made in house; host or cells: E. coli BL21(DE3)RP, pET-21b
T2 sequence (P55210 1-303): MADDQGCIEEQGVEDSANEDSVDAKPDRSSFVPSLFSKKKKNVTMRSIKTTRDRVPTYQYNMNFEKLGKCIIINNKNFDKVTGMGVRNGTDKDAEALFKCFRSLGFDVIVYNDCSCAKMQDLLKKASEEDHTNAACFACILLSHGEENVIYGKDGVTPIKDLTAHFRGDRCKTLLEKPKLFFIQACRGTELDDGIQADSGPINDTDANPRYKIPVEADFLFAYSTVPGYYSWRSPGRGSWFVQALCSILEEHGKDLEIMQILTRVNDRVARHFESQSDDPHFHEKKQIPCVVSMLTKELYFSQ
Method: The executioner procaspase-3, -6 and -7 activation assay protocol involves incubating the target protein at the physiologically-relevant concentration of 100 nM with activating compounds (ranging from 100 nM to 100 uM) in a total volume of 50 μL consisting of a reaction buffer of 50 mM HEPES, pH 7.4, 50 mM KCl, 1 mM DTT and 0.01% Triton-X100 (to reduce false positive hits due to compound aggregation). The procaspase/small molecule incubations are then agitated at 37° C. and assayed at various time points by addition of the fluorogenic peptide substrate 7-Amino-4-trifluoromethylcoumarin-DEVD (Ac-DEVD-AFC) (procaspases-3, -7) or Ac-VEID-AFC (procaspase-6) to a final concentration of 25 μM and analyzed by a kinetic 30 minute assay (excitation 365 nm and emission 495 nm). The final concentration of DMSO in each well is 3% and has no effect on enzyme stability or activity. […] All components of the assay including protein, substrate and inhibitor are stored as frozen aliquots and thawed immediately prior to the assay.
Tables 1 and 2. Procaspase activation as a result of incubation with compound for 5 h at 37° C. (+++ EC50˜0.5-10 μM; ++ EC50˜10-50 μM; + EC50˜50-200 μM; -no activation observed; ND not determined).

procaspase-6 = target: T3, procaspase-6 (Homo sapiens, UniProt P55212); assay: Executioner procaspase-6 activation assay (Ac-VEID-AFC fluorogenic substrate); conditions: incubation with compound for 5 h at 37° C.; 100 nM procaspase
T3 sequence (P55212 1-293): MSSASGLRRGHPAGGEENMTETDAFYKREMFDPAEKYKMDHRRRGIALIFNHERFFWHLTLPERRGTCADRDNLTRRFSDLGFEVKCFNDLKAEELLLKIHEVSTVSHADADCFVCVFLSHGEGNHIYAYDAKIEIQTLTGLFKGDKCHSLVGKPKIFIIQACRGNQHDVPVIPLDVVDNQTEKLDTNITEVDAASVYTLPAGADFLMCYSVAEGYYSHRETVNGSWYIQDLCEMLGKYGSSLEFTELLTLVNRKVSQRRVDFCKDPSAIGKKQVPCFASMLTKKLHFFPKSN
Procedure, shortened: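 Procaspase at 100 nM incubated with compound (100 nM–100 μM) in 50 mM HEPES pH 7.4, KCl, DTT, 0.01% Triton X-100, 3% DMSO, 37 °C for 5 h; then 25 μM Ac-DEVD-AFC (procaspase-7) or Ac-VEID-AFC (procaspase-6), kinetic fluorescence 30 min (ex 365/em 495); EC50 reported.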

| Structure (SMILES) | EC50 (procaspase-3) | EC50 (procaspase-7) | EC50 (procaspase-6) |
| --- | --- | --- | --- |
| COc1cccc2cc(C(=O)Nc3cccc(-c4ccc5c(c4)OCO5)c3)c(=O)oc12 [compound 63, 8-Methoxy-2-oxo-2H-chromene-3-carboxylic acid (3-Benzo[1,3]dioxol-5-yl-phenyl)-amide] | > 100 µM | > 100 µM | > 100 µM |
| O=C(Nc1cccc(-c2ccc3c(c2)OCO3)c1)c1cc2cccc(OC(F)(F)F)c2oc1=O [compound 64, 8-Trifluoromethoxy-2-oxo-2H-chromene-3-carboxylic acid (3-Benzo[1,3]dioxol-5-yl-phenyl)-amide] | > 100 µM | > 100 µM | > 100 µM |
| CCOc1ccc(-c2cccc(NC(=O)c3cc4cccc(O)c4oc3=O)c2)cc1C [compound 65, 8-Hydroxy-2-oxo-2H-chromene-3-carboxylic acid (4′-ethoxy-3′-methyl-biphenyl-3-yl)-amide] | > 100 µM | > 100 µM | > 100 µM |
| CCOc1ccc(-c2cccc(NC(=O)c3cc4cccc(OC)c4oc3=O)c2)cc1C [compound 66, 8-Methoxy-2-oxo-2H-chromene-3-carboxylic acid (4′-ethoxy-3′-methyl-biphenyl-3-yl)-amide] | > 100 µM | > 100 µM | > 100 µM |
| CCOc1ccc(-c2cccc(NC(=O)c3cc4cccc(OC(F)(F)F)c4oc3=O)c2)cc1C [compound 67, 8-Trifluoromethoxy-2-oxo-2H-chromene-3-carboxylic acid (4′-ethoxy-3′-methyl-biphenyl-3-yl)-amide] | > 100 µM | > 100 µM | > 100 µM |
| CCOc1ccc(-c2cccc(NC(=O)c3cc4cccc(O)c4oc3=O)c2)cc1 [compound 68, 8-Hydroxy-2-oxo-2H-chromene-3-carboxylic acid (4′-Ethoxy-biphenyl-3-yl)-amide] | > 100 µM | > 100 µM | > 100 µM |
| CCOc1ccc(-c2cccc(NC(=O)c3cc4cccc(OC)c4oc3=O)c2)cc1 [compound 69, 8-Methoxy-2-oxo-2H-chromene-3-carboxylic acid (4′-ethoxy-biphenyl-3-yl)-amide] | > 100 µM | > 100 µM | > 100 µM |
| CCOc1ccc(-c2cccc(NC(=O)c3cc4cccc(OC(F)(F)F)c4oc3=O)c2)cc1 [compound 70, 8-Trifluoromethoxy-2-oxo-2H-chromene-3-carboxylic acid (4′-ethoxy-biphenyl-3-yl)-amide] | > 100 µM | > 100 µM | > 100 µM |
| O=C(Nc1cccc(-c2ccccc2OC(F)(F)F)c1)c1cc2cccc(O)c2oc1=O [compound 71, 8-Hydroxy-2-oxo-2H-chromene-3-carboxylic acid (2′-trifluoromethoxy-biphenyl-3-yl)-amide] | > 100 µM | > 100 µM | > 100 µM |
| COc1cccc2cc(C(=O)Nc3cccc(-c4ccccc4OC(F)(F)F)c3)c(=O)oc12 [compound 72, 8-Methoxy-2-oxo-2H-chromene-3-carboxylic acid (2′-trifluoromethoxy-biphenyl-3-yl)-amide] | > 100 µM | > 100 µM | > 100 µM |
| O=C(Nc1cccc(-c2ccccc2OC(F)(F)F)c1)c1cc2cccc(OC(F)(F)F)c2oc1=O [compound 73, 8-Trifluoromethoxy-2-oxo-2H-chromene-3-carboxylic acid (2′-trifluoromethoxy-biphenyl-3-yl)-amide] | > 100 µM | > 100 µM | > 100 µM |
| O=C(Nc1cccc(-c2ccc3c(c2)CCO3)c1)c1cc2cccc(O)c2oc1=O [compound 74, 8-Hydroxy-2-oxo-2H-chromene-3-carboxylic acid [3-(2,3-Dihydro-benzofuran-5-yl)-phenyl]-amide] | > 100 µM | 10 to 50 µM | > 100 µM |
| COc1cccc2cc(C(=O)Nc3cccc(-c4ccc5c(c4)CCO5)c3)c(=O)oc12 [compound 75, 8-Methoxy-2-oxo-2H-chromene-3-carboxylic acid [3-(2,3-dihydro-benzofuran-5-yl)-phenyl]-amide] | > 100 µM | > 100 µM | > 100 µM |
| O=C(Nc1cccc(-c2ccc3c(c2)CCO3)c1)c1cc2cccc(OC(F)(F)F)c2oc1=O [compound 76, 8-Trifluoromethoxy-2-oxo-2H-chromene-3-carboxylic acid [3-(2,3-dihydro-benzofuran-5-yl)-phenyl]-amide] | > 100 µM | > 100 µM | > 100 µM |
| COc1ccc2cc(-c3cccc(NC(=O)c4cc5cccc(O)c5oc4=O)c3)ccc2c1 [compound 77, 8-Hydroxy-2-oxo-2H-chromene-3-carboxylic acid [3-(6-methoxy-naphthalen-2-yl)-phenyl]-amide] | > 100 µM | 0.5 to 10 µM | > 100 µM |
| COc1ccc2cc(-c3cccc(NC(=O)c4cc5cccc(OC)c5oc4=O)c3)ccc2c1 [compound 78, 8-Methoxy-2-oxo-2H-chromene-3-carboxylic acid [3-(6-methoxy-naphthalen-2-yl)-phenyl]-amide] | > 100 µM | > 100 µM | > 100 µM |
| COc1ccc2cc(-c3cccc(NC(=O)c4cc5cccc(OC(F)(F)F)c5oc4=O)c3)ccc2c1 [compound 79, 8-Trifluoromethoxy-2-oxo-2H-chromene-3-carboxylic acid [3-(6-methoxy-naphthalen-2-yl)-phenyl]-amide] | > 100 µM | > 100 µM | > 100 µM |
| O=C(Nc1cccc(-c2ccc3ccccc3c2)c1)c1cc2cccc(O)c2oc1=O [compound 80, 8-Hydroxy-2-oxo-2H-chromene-3-carboxylic acid (3-Naphthalen-2-yl-phenyl)-amide] | > 100 µM | > 100 µM | > 100 µM |
| COc1cccc2cc(C(=O)Nc3cccc(-c4ccc5ccccc5c4)c3)c(=O)oc12 [compound 81, 8-Methoxy-2-oxo-2H-chromene-3-carboxylic acid (3-Naphthalen-2-yl-phenyl)-amide] | > 100 µM | > 100 µM | > 100 µM |
| O=C(Nc1cccc(-c2ccc3ccccc3c2)c1)c1cc2cccc(OC(F)(F)F)c2oc1=O [compound 82, 8-Trifluoromethoxy-2-oxo-2H-chromene-3-carboxylic acid (3-Naphthalen-2-yl-phenyl)-amide] | > 100 µM | > 100 µM | > 100 µM |
| O=C(Nc1cccc(-c2cnc3ccccc3c2)c1)c1cc2cccc(O)c2oc1=O [compound 83, 8-Hydroxy-2-oxo-2H-chromene-3-carboxylic acid [3-Quinolin-3-yl-phenyl]-amide] | > 100 µM | > 100 µM | > 100 µM |
| COc1cccc2cc(C(=O)Nc3cccc(-c4cnc5ccccc5c4)c3)c(=O)oc12 [compound 84, 8-Methoxy-2-oxo-2H-chromene-3-carboxylic acid [3-Quinolin-3-yl-phenyl]-amide] | > 100 µM | > 100 µM | > 100 µM |
| O=C(Nc1cccc(-c2cnc3ccccc3c2)c1)c1cc2cccc(OC(F)(F)F)c2oc1=O [compound 85, 8-Trifluoromethoxy-2-oxo-2H-chromene-3-carboxylic acid [3-Quinolin-3-yl-phenyl]-amide] | > 100 µM | > 100 µM | > 100 µM |
